The record followed here is patent US8202877B2, “Aminopyrimidinamides as pesticides” (Bayer CropScience AG, priority 2009, dated 2012).

System in the first data set: not listed separately
Nature of the data set: logP (HCOOH), physicochemical characterization.
Settings: not given
Consider `Cc1ncccc1C(=O)Nc1c(NC2CC2)ncnc1-c1ccc(F)cc1` [1-1], for which the “logP (HCOOH)” value is given as 0.71.

Consider `CCc1ncccc1C(=O)Nc1c(NC2CC2)ncnc1-c1ccc(SC(F)(F)F)cc1` [1-114], for which the “logP (HCOOH)” value came to 1.4.

With `O=C(Nc1c(NC2CC2)ncnc1-c1ccccc1)c1cccnc1` [1-128], the “logP (HCOOH)” value was found to be 0.63. The same measure, in the same setting: the value for `CCc1ncccc1C(=O)Nc1c(NC2CC2)ncnc1-c1ccc(C#N)cc1` [1-133] was 1.10; that for `CCc1ncccc1C(=O)Nc1c(NC2CC2)ncnc1-c1ccc(F)cc1Cl` [1-139] was 0.79; that for `CCOc1ncccc1C(=O)Nc1c(NC2CC2)ncnc1-c1ccc(C#N)cc1` [1-160] was 1.80. Same read-out and setting: the same measure for `CCc1ncccc1C(=O)Nc1c(NC2CC2)ncnc1-c1ccc(F)cc1C` [1-180]: 1.10; for `CCc1ncccc1C(=O)Nc1c(NC2CC2)ncnc1-c1ccccc1C` [1-182]: 0.94.

For `CCc1ncccc1C(=O)Nc1c(NC2CC2)ncnc1-c1ccc(Cl)cc1C` [1-188], the “logP (HCOOH)” value amounted to 1.40. Same read-out and setting: the same measure for `O=C(Nc1c(NC2CC2)ncnc1-c1ccc(Cl)cc1)c1c(F)cccc1Cl` [1-263]: 2.20; for `CCCc1ncccc1C(=O)Nc1c(NC2CC2)ncnc1-c1ccc(Cn2nc(C(F)(F)F)nc2C(F)(F)F)cc1` [1-264]: 1.9; for `CCc1ncccc1C(=O)Nc1c(NC2CC2)nc(C)nc1-c1ccccc1` [1-275]: 0.76. On the same count and under the same terms, the value for `CCc1ncccc1C(=O)Nc1c(NC2CC2)nc(C)nc1-c1ccc(F)cc1` [1-276] was 0.88. The same measure, in the same setting: the value for `CCc1ncccc1C(=O)Nc1c(NC2CC2)nc(C)nc1-c1ccc(F)cc1F` [1-278] was 1. Take `CCc1ncccc1C(=O)Nc1c(Br)ncnc1NC1CC1` [3-3]: the “logP (HCOOH)” value is recorded as 0.84. Regarding `O=C(Nc1c(NC2CC2)ncnc1-c1ccc(F)cc1)c1ccnn1-c1ccc(F)cc1` [9-1], the “logP (HCOOH)” value turned out to be 1.70.

Take `O=C(Nc1c(NC2CC2)ncnc1-c1ccc(F)cc1)c1ccnn1-c1ccc(Cl)cc1` [9-2]: the “logP (HCOOH)” value is recorded as 2.02. On to `O=C(Nc1c(NC2CC2)ncnc1-c1ccc(F)cc1)c1ccnn1-c1ccccc1Cl` [9-3], for which the “logP (HCOOH)” value was found to be 1.76. Still for that read-out and setting: the value for `O=C(Nc1c(NC2CC2)ncnc1-c1ccc(Cl)cc1)c1ccnn1-c1ccccc1Cl` [9-4] was 2.05.

The subject of a further data set is Spodoptera litura third instar larvae.
Experiment: not given
As to conditions: active compound concentration of 100 ppm; sweet potato leaves immersed; after 7 days.
For `CCc1ncccc1C(=O)Nc1c(NC2CC2)ncnc1-c1ccc(Cl)cc1` [1-177, N-[4-(4-Chlorophenyl)-6-cyclopropylaminopyrimidin-5-yl]-2-ethylnicotinamide], the insecticidal activity is reported as 100%. Regarding `CCc1ncccc1C(=O)Nc1c(NC2CC2)ncnc1-c1ccc(C(F)(C(F)(F)F)C(F)(F)F)cc1` [1-232], the insecticidal activity was found to be 100%. Same read-out and setting: the value for `O=C(Nc1c(NC2CC2)ncnc1-c1ccccc1)c1cccnc1C1CC1` [1-234] was 100%; that for `O=C(Nc1c(NC2CC2)ncnc1-c1ccc(F)cc1)c1cccnc1C1CC1` [1-235] was 100%; that for `O=C(Nc1c(NC2CC2)ncnc1-c1ccc(Cl)cc1)c1cccnc1C1CC1` [1-236] was 100%.

On to `CCCc1ncccc1C(=O)Nc1c(NC2CC2)ncnc1-c1ccccc1` [1-237], for which the insecticidal activity came out at 100%.

With `CCCc1ncccc1C(=O)Nc1c(NC2CC2)ncnc1-c1ccc(F)cc1` [1-238], the insecticidal activity is recorded as 100%. The same measure, in the same setting: the value for `CCCc1ncccc1C(=O)Nc1c(NC2CC2)ncnc1-c1ccc(Cl)cc1` [1-239] was 100%; that for `O=C(Nc1c(NC2CC2)ncnc1-c1ccc(F)cc1F)c1cccnc1C1CC1` [1-240] was 100%; that for `O=C(Nc1c(NC2CC2)ncnc1-c1ccc(Cl)cc1)c1cccnc1C(F)(F)C(F)(F)F` [1-241] was 100%. Still for that read-out and setting: the value for `N#Cc1ccc(-c2ncnc(NC3CC3)c2NC(=O)c2cccnc2C2CC2)cc1` [1-242] was 100%. Still for that read-out and setting: the same measure for `O=C(Nc1c(NC2CC2)ncnc1-c1ccc(OC(F)(F)F)cc1)c1cccnc1C1CC1` [1-243]: 100%; for `CCCc1ncccc1C(=O)Nc1c(NC2CC2)ncnc1-c1ccc(Cl)cc1Cl` [1-244]: 100%. In the case of `CCCc1ncccc1C(=O)Nc1c(NC2CC2)ncnc1-c1ccc(F)cc1F` [1-245], the insecticidal activity is recorded as 100%. On the same count and under the same terms, the value for `CCCc1ncccc1C(=O)Nc1c(NC2CC2)ncnc1-c1ccc(C#N)cc1` [1-246] was 100%; that for `CCc1ncccc1C(=O)Nc1c(NC2CC2)ncnc1-c1ccc(Cn2nc(C(F)(F)C(F)(F)F)cc2C(F)(F)F)cc1` [1-247] was 100%; that for `O=C(Nc1c(NC2CC2)ncnc1-c1ccc(Cn2nc(C(F)(F)F)cc2C(F)(F)F)cc1)c1cccnc1C1CC1` [1-252] was 100%. The same measure, in the same setting: the same measure for `O=C(Nc1c(NC2CC2)ncnc1-c1ccc(Cn2nc(C(F)(F)C(F)(F)F)cc2C(F)(F)F)cc1)c1cccnc1C1CC1` [1-253]: 100%; for `O=C(Nc1c(NC2CC2)ncnc1-c1ccc(F)cc1F)c1cccnc1CC(F)(F)F` [1-254]: 100%; for `CCc1ccccc1C(=O)Nc1c(NC2CC2)ncnc1-c1ccc(OC(F)(F)F)cc1` [1-257]: 100%.

As to `CCc1ncccc1C(=O)Nc1c(NC2CC2)ncnc1-c1ccc(Cn2nc(C(F)(F)F)nc2C(F)(F)F)cc1` [1-258], the insecticidal activity is on record as 100%.

`O=C(Nc1c(NC2CC2)ncnc1-c1ccc(Cn2nc(C(F)(F)F)nc2C(F)(F)F)cc1)c1cccnc1C1CC1` [1-259]: the insecticidal activity is recorded as 100%. For the compound `CCCc1ncccc1C(=O)Nc1c(NC2CC2)ncnc1-c1ccc(Cn2nc(C(F)(F)F)nc2C(F)(F)F)cc1` [1-264], the insecticidal activity is recorded as 100%.

Take `CCc1ccccc1C(=O)Nc1c(NC2CC2)ncnc1-c1ccc(Cn2nc(C(F)(F)F)nc2C(F)(F)F)cc1` [1-265]: the insecticidal activity was found to be 100%. Same read-out and setting: the value for `CCc1ncccc1C(=O)Nc1c(NC2CC2)ncnc1-c1ccc(Cn2ccc(C(F)(F)C(F)(F)F)n2)cc1` [1-266] was 100%. On the same count and under the same terms, the same measure for `CCc1ncccc1C(=O)Nc1c(NC2CC2)ncnc1-c1ccc(Cn2ccc(C(F)(F)C(F)(F)C(F)(F)F)n2)cc1` [1-267]: 100%.

As to `CCc1ncccc1C(=O)Nc1c(NC2CC2)ncnc1-c1ccc(Cn2nc(C(F)(F)F)cc2C(F)(F)F)cc1` [1-268], the insecticidal activity was determined as 100%.

Compound `CCc1ncccc1C(=O)Nc1c(NC2CC2)ncnc1-c1ccc(Cn2nc(C(F)(F)C(F)(F)F)cc2C(F)(F)C(F)(F)F)cc1` [1-269] yielded an insecticidal activity of 100%. The compound `CCc1ccccc1C(=O)Nc1c(NC2CC2)ncnc1-c1ccc(Cn2cnc(C(F)(F)F)n2)cc1` [1-286] showed an insecticidal activity of 100%.

Consider `CCc1ncccc1C(=O)Nc1c(NC2CC2)ncnc1-c1ccc(Oc2ncc(C(F)(F)F)cc2Cl)cc1` [1-310], for which the insecticidal activity is given as 100%. Still for that read-out and setting: the same measure for `CCc1ncccc1C(=O)Nc1c(NC2CC2)ncnc1-c1ccc(Oc2ncccc2C(F)(F)F)cc1` [1-311]: 100%.

On to `CCc1ncccc1C(=O)Nc1c(NC2CC2)ncnc1-c1ccc(Oc2cccc(C(F)(F)F)n2)cc1` [1-312], for which the insecticidal activity turned out to be 100%.

`CCc1ncccc1C(=O)Nc1c(NC2CC2)nc(C(F)(F)F)nc1-c1ccc(F)cc1` [1-313] had an insecticidal activity of 100%. In turn, `CCc1ncccc1C(=O)Nc1c(NC2CC2)nc(C(F)(F)F)nc1-c1ccc(F)cc1F` [1-314] displayed an insecticidal activity of 100%. Still for that read-out and setting: the same measure for `CCc1ncccc1C(=O)Nc1c(NC2CC2)ncnc1-c1ccc(Oc2nc(C(F)(F)F)cc(C(F)(F)C(F)(F)F)n2)cc1` [1-317]: 100%; for `CCc1ncccc1C(=O)Nc1c(NC2CC2)ncnc1-c1ccc(Cc2nc(C(F)(F)C(F)(F)C(F)(F)F)n(C)n2)cc1` [1-318]: 100%. The same measure, in the same setting: the same measure for `CCc1ncccc1C(=O)Nc1c(NC2CC2)ncnc1-c1ccc(Cc2n[nH]c(C(F)(F)C(F)(F)C(F)(F)F)n2)cc1` [1-319]: 100%; for `O=C(Nc1c(NC2CC2)nc(C(F)(F)F)nc1-c1ccc(F)cc1)c1cccnc1CC(F)(F)F` [1-324]: 100%; for `O=C(Nc1c(NC2CC2)nc(Cl)nc1-c1ccc(F)cc1)c1cccnc1CC(F)(F)F` [1-325]: 100%. Turning to `CCc1ncccc1C(=O)Nc1c(NC2CC2)nc(Cl)nc1-c1ccc(F)cc1` [1-326], the insecticidal activity is recorded as 100%.

`CCc1ncccc1C(=O)Nc1c(Cl)ncnc1Nc1ccc(F)cc1` [5-2]: the insecticidal activity stood at 100%.
